Data from patent publication US12459951B2, “Compounds that interact with RAS superfamily proteins for treatment of cancers, inflammatory diseases, rasopathies, and fibrotic disease” (SHY Therapeutics, LLC, priority 2022, dated 2025).

Legend:
[1] = system: Erk1/2 phosphorylation; assay: Erk1/2 Phosphorylation Assay (western blot), Panc-1; type: cell-based, human; conditions: at 10 μM, * = activation
Summary of the method: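 Phospho-Erk1/2 (Thr202/Tyr204) was detected by western blot in lysates of Panc-1 cells (KRas G12D). These had 6 h, 37° C exposure to 10 μM compound or a dilution series for IC50, in 0.3% DMSO. Cells were either starved overnight in 0.5% FBS with a 15-min 1.5 ng/ml EGF pulse, or kept unstimulated in 10% FBS.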

[2] = system: Akt phosphorylation; assay: Akt Phosphorylation Assay (western blot), Panc-1; type: cell-based, human; conditions: at 10 μM, * = activation
Summary of the method: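 Phospho-Akt (Ser473) was measured by western blot in lysates of KRas G12D Panc-1 cells exposed to test compound for 6 h at 37 °C, either at 10 μM final with 0.3% DMSO or as serial dilutions for IC50. One format used overnight 0.5% FBS starvation followed by a 15 min pulse of 1.5 ng/ml EGF. The other used cells in 10% FBS with no stimulation.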

Row | SMILES | % inh of Erk1/2 phosphorylation in Panc-1 [1] | % inh of Akt phosphorylation in Panc-1 [2]
1 | Cc1c(-c2ccn(C)n2)cn2nc(-c3nccn3C)nc(Nc3ccc(C(F)(F)F)cn3)c12 [Compound 233, 5-Methyl-2-(1-methyl-1H-imidazol-2-yl)-6-(1-methyl-1H-pyrazol-3-yl)-N-(5-(trifluoromethyl)pyridin-2-yl)pyrrolo[2,1-f][1,2,4]triazin-4-amine] | D* (85-100% activation) | D* (85-100% activation)
2 | Cc1c(-c2ccn(C)n2)cn2nc(-c3nccn3C)nc(Nc3ccc(C(F)F)cn3)c12 [Compound 234, N-(5-(Difluoromethyl)pyridin-2-yl)-5-methyl-2-(1-methyl-1H-imidazol-2-yl)-6-(1-methyl-1H-pyrazol-3-yl)pyrrolo[2,1-f][1,2,4]triazin-4-amine] | D* (85-100% activation) | D* (85-100% activation)
3 | CCNC(=O)c1c(-c2ccn(C)n2)cn2nc(-c3nccn3C)nc(Nc3cc(OC)ccn3)c12 [Compound 173, N-Ethyl-4-((4-methoxypyridin-2-yl)amino)-2-(1-methyl-1H-imidazol-2-yl)-6-(1-methyl-1H-pyrazol-3-yl)pyrrolo[2,1-f][1,2,4]triazine-5-carboxamide] | C (50-84% inhibition) | C* (46-84% activation)
4 | COc1cnc(Nc2nc(-c3nccn3C)nn3cc(-c4ccn(C)n4)c(C)c23)cc1C [Compound 236, N-(5-Methoxy-4-methylpyridin-2-yl)-5-methyl-2-(1-methyl-1H-imidazol-2-yl)-6-(1-methyl-1H-pyrazol-3-yl)pyrrolo[2,1-f][1,2,4]triazin-4-amine] | D* (85-100% activation) | B* (26-49% activation)
5 | Cc1c(-c2ccn(C)n2)cn2nc(-c3nccn3C)nc(Nc3cc(C(C)(C)O)ccn3)c12 [Compound 240, 2-(2-((5-Methyl-2-(1-methyl-1H-imidazol-2-yl)-6-(1-methyl-1H-pyrazol-3-yl)pyrrolo[2,1-f][1,2,4]triazin-4-yl)amino)pyridin-4-yl)propan-2-ol] | A* (1-25% activation) | D* (85-100% activation)
6 | COc1ccnc(Nc2nc(-c3nccn3C)nn3cc(-c4ccn(C)n4)c(C(=O)NCC(F)(F)F)c23)c1 [Compound 174, 4-((4-Methoxypyridin-2-yl)amino)-2-(1-methyl-1H-imidazol-2-yl)-6-(1-methyl-1H-pyrazol-3-yl)-N-(2,2,2-trifluoro-ethyl)pyrrolo[2,1-f][1,2,4]triazine-5-carboxamide] | D* (85-100% activation) | D* (85-100% activation)
7 | CO[C@H]1C[C@H](Nc2nc(-c3nccn3C)nn3cc(-c4ccc(CCN)cc4)c(-c4ccccc4)c23)C1.Cl [Compound 207, 6-(4-(2-Aminoethyl)phenyl)-N-((1r,3r)-3-methoxycyclobutyl)-2-(1-methyl-1H-imidazol-2-yl)-5-phenylpyrrolo[2,1-f][1,2,4]triazin-4-amine hydrochloride salt] | D* (85-100% activation) | C* (46-84% activation)
8 | COC1CCCN(c2nc(-c3ccccn3)nn3cc(-c4ccn(C(C)C)n4)c(C)c23)C1 (racemic) [Compound 12, rac 6-(1-Isopropyl-1H-pyrazol-3-yl)-4-(3-methoxypiperidin-1-yl)-5-methyl-2-(pyridin-2-yl)pyrrolo[2,1-f][1,2,4]triazine] | 0 (0% inhibition) | 0 (0% inhibition)
9 | Cc1c(-c2ccn(C)n2)cn2nc(-c3nccn3C)nc(Nc3ccc(N(C)C)cn3)c12 [Compound 227, N5,N5-Dimethyl-N2-(5-methyl-2-(1-methyl-1H-imidazol-2-yl)-6-(1-methyl-1H-pyrazol-3-yl)pyrrolo[2,1-f][1,2,4]triazin-4-yl)pyridine-2,5-diamine] | C* (46-84% activation) | D* (85-100% activation)
10 | Cc1c(-c2ccn(C)n2)cn2nc(-c3nccn3C)nc(Nc3cc(N4CCOCC4)ccn3)c12 [Compound 222, 5-Methyl-2-(1-methyl-1H-imidazol-2-yl)-6-(1-methyl-1H-pyrazol-3-yl)-N-(4-morpholinopyridin-2-yl)pyrrolo[2,1-f][1,2,4]triazin-4-amine] | A* (1-25% activation) | D* (85-100% activation)
11 | Cc1c(-c2ccn(C)n2)cn2nc(-c3nccn3C)nc(Nc3ccc(N4CCCC4)cn3)c12 [Compound 228, 5-Methyl-2-(1-methyl-1H-imidazol-2-yl)-6-(1-methyl-1H-pyrazol-3-yl)-N-(5-(pyrrolidin-1-yl)pyridin-2-yl)pyrrolo[2,1-f][1,2,4]triazin-4-amine] | A* (1-25% activation) | D* (85-100% activation)
12 | COc1ccnc(Nc2nc(-c3nccn3C)nn3cc(-c4ccn(C)n4)c(C(=O)N4CCCC4)c23)c1 [Compound 178, (4-((4-Methoxypyridin-2-yl)amino)-2-(1-methyl-1H-imidazol-2-yl)-6-(1-methyl-1H-pyrazol-3-yl)pyrrolo[2,1-f][1,2,4]triazin-5-yl)(pyrrolidin-1-yl)methanone] | D* (85-100% activation) | D* (85-100% activation)
13 | COc1cc(Nc2nc(-c3ccccn3)nn3cc(-c4ccn(C(C)C)n4)c(C)c23)ncn1 [Compound 13, 6-(1-Isopropyl-1H-pyrazol-3-yl)-N-(6-methoxypyrimidin-4-yl)-5-methyl-2-(pyridin-2-yl)pyrrolo[2,1-f][1,2,4]triazin-4-amine] | 0 (0% inhibition) | 0 (0% inhibition)
14 | CO[C@H]1C[C@H](Nc2nc(-c3nccn3C)nn3cc(-c4cccc5c4CCO5)c(-c4ccccc4)c23)C1 [Compound 210, 6-(2,3-Dihydrobenzofuran-4-yl)-N-((1r,3r)-3-methoxycyclobutyl)-2-(1-methyl-1H-imidazol-2-yl)-5-phenylpyrrolo[2,1-f][1,2,4]triazin-4-amine] | D (85-100% inhibition) | D (85-100% inhibition)
15 | Cc1c(-c2ccn(C)n2)cn2nc(-c3nccn3C)nc(O)c12 [Compound 172, 5-Methyl-2-(1-methyl-1H-imidazol-2-yl)-6-(1-methyl-1H-pyrazol-3-yl)pyrrolo[2,1-f][1,2,4]triazin-4-ol] | 0 (0% inhibition) | B* (26-49% activation)
16 | CO[C@@H]1C[C@H]1Nc1nc(-c2nccn2C)nn2cc(-c3cccnc3)c(-c3ccccc3)c12 (racemic) [Compound 190, N-((1R,2R)-2-Methoxycyclopropyl)-2-(1-methyl-1H-imidazol-2-yl)-5-phenyl-6-(pyridin-3-yl)pyrrolo[2,1-f][1,2,4]triazin-4-amine] | D* (85-100% activation) | D* (85-100% activation)
17 | CO[C@H]1C[C@@H](Nc2nc(-c3nccn3C)nn3cc(-c4cccnc4)c(-c4ccccc4)c23)C1 [Compound 191, N-((1s,3s)-3-Methoxycyclobutyl)-2-(1-methyl-1H-imidazol-2-yl)-5-phenyl-6-(pyridin-3-yl)pyrrolo[2,1-f][1,2,4]triazin-4-amine] | D* (85-100% activation) | D* (85-100% activation)
18 | COc1ccc(Nc2nc(-c3nccn3C)nn3cc(-c4ccn(C)n4)c(C)c23)nc1 [Compound 224, N-(5-Methoxypyridin-2-yl)-5-methyl-2-(1-methyl-1H-imidazol-2-yl)-6-(1-methyl-1H-pyrazol-3-yl)pyrrolo[2,1-f][1,2,4]triazin-4-amine] | C* (46-84% activation) | D* (85-100% activation)
19 | COc1ccnc(Nc2nc(-c3nccn3C)nn3cc(-c4cccnc4)c(-c4ccccc4)c23)c1 [Compound 196, N-(4-Methoxypyridin-2-yl)-2-(1-methyl-1H-imidazol-2-yl)-5-phenyl-6-(pyridin-3-yl)pyrrolo[2,1-f][1,2,4]triazin-4-amine] | D* (85-100% activation) | D* (85-100% activation)
20 | COCCNc1nc(-c2nccn2C)nn2cc(-c3ccncc3)c(-c3ccccc3)c12 [Compound 202, N-(2-Methoxyethyl)-2-(1-methyl-1H-imidazol-2-yl)-5-phenyl-6-(pyridin-4-yl)pyrrolo[2,1-f][1,2,4]triazin-4-amine] | D* (85-100% activation) | B (26-49% inhibition)
21 | COc1cccc(Nc2nc(-c3ccccn3)nn3cc(-c4ccn(C(C)C)n4)c(C)c23)n1 [Compound 14, 6-(1-Isopropyl-1H-pyrazol-3-yl)-N-(6-methoxypyridin-2-yl)-5-methyl-2-(pyridin-2-yl)pyrrolo[2,1-f][1,2,4]triazin-4-amine] | 0 (0% inhibition) | 0 (0% inhibition)
22 | COCCNc1nc(-c2nccn2C)nn2cc(-c3cccnc3)c(-c3ccccc3)c12 [Compound 195, N-(2-Methoxyethyl)-2-(1-methyl-1H-imidazol-2-yl)-5-phenyl-6-(pyridin-3-yl)pyrrolo[2,1-f][1,2,4]triazin-4-amine] | B* (26-49% activation) | D* (85-100% activation)
